Data: patent US20250387405A1 (priority 2021, published 2025)
Where two headings read alike, the source gives them in different places.

Columns and labels:
[1] = assay type: physicochemical; details: for crystal structure: light stability test; for Content of OXA/% / Content of CBT/%: light
[2] = system: Human MH7A synovial cells; experiment: Proliferation of MH7A cells; assay type: cell-based
Experimental: Human MH7A synovial cells were cultured in vitro and measured by quantifying the number of cells 48 h after treatment Proliferation.

[3] = system: Human fibroblast-like synovial cell rheumatoid arthritis (HFLS-RA) cells; experiment: Proliferation of HFLS-RA cells; assay type: cell-based
Experimental: Human fibroblast-like synovial cell rheumatoid arthritis (HFLS-RA) cells were cultured in vitro and their proliferation was measured by quantifying the number of cells 48 h after treatment.

[4] = assay type: physicochemical; details: for Content of OXA/% / Content of CBT/%: 60° C.; for crystal structure: high temperature (60° C.) test
[5] = Equilibrium solubility in water by HPLC; details: for equilibrium solubility in water (25° C.): HPLC
[6] = 48 h after treatment, 1.563-100 μg/mL

O=C1[O][Pt]2([NH][C@@H]3CCCC[C@H]3[NH]2)[O]C1=O [OXA, oxaliplatin, reference compound]
crystal structure [1]: unchanged | Content of OXA/% ([1]; Day 0): 100% | Content of OXA/% ([1]; Day 1): 98.87% | Content of OXA/% ([1]; Day 3): 99.32% | Content of OXA/% ([1]; Day 5): 96.89% | Content of OXA/% ([1]; Day 10): 99.45% | Content of OXA/% ([1]; Day 15): 98.01% | IC50, proliferation of MH7A [2, 6]: 8.91 µg/mL | proliferation of MH7A cells inhibited ([2]; FIG. 7): 99% | IC50, proliferation of HFLS-RA [3, 6]: 4.56 µg/mL | proliferation of HFLS-RA cells inhibited ([3]; FIG. 6): 99% | Content of OXA/% ([4]; Day 0): 100% | Content of OXA/% ([4]; Day 1): 98.36% | Content of OXA/% ([4]; Day 3): 99.33% | Content of OXA/% ([4]; Day 5): 99.18% | Content of OXA/% ([4]; Day 10): 99.09% | Content of OXA/% ([4]; Day 15): 98.21% | crystal structure [4]: unchanged

OCC1OC(Oc2cc(O)cc(C=Cc3ccc(O)cc3)c2)C(O)C(O)C1O.[NH2][Pt]1([NH2])[O]C(=O)C2(CCC2)C(=O)[O]1 (centres unmarked) [CBT-PDT, carboplatin-polydatin cocrystal]
crystal structure [1]: unchanged | Content of CBT/% ([1]; Day 0): 100% | Content of CBT/% ([1]; Day 1): 100% | Content of CBT/% ([1]; Day 3): 100% | Content of CBT/% ([1]; Day 5): 99.60% | Content of CBT/% ([1]; Day 10): 99.72% | Content of CBT/% ([1]; Day 15): 99.29% | Content of CBT/% ([4]; Day 0): 100% | Content of CBT/% ([4]; Day 1): 100% | Content of CBT/% ([4]; Day 3): 99.27% | Content of CBT/% ([4]; Day 5): 99.08% | Content of CBT/% ([4]; Day 10): 99.69% | Content of CBT/% ([4]; Day 15): 99.83% | crystal structure [4]: unchanged | equilibrium solubility in aqueous solution compared with oxaliplatin or carboplatin, respectively ([5]; aqueous solution, versus parent platinum drug): higher | equilibrium solubility in water (25° C.) [5]: 16.2 mg/mL

N.N.O=C([O-])C1(C(=O)[O-])CCC1.[Pt+2] [CBT, carboplatin, reference compound]
crystal structure [1]: unchanged | Content of CBT/% ([1]; Day 0): 100% | Content of CBT/% ([1]; Day 1): 99.37% | Content of CBT/% ([1]; Day 3): 99.84% | Content of CBT/% ([1]; Day 5): 99.31% | Content of CBT/% ([1]; Day 10): 98.29% | Content of CBT/% ([1]; Day 15): 98.82% | Content of CBT/% ([4]; Day 0): 100% | Content of CBT/% ([4]; Day 1): 99.76% | Content of CBT/% ([4]; Day 3): 99.29% | Content of CBT/% ([4]; Day 5): 99.16% | Content of CBT/% ([4]; Day 10): 99.27% | Content of CBT/% ([4]; Day 15): 99.82% | crystal structure [4]: unchanged | equilibrium solubility in water (25° C.) [5]: 12.7 mg/mL

O=C(O)C1(C(=O)O)CCC1.O=C1[O][Pt]2([NH]C3CCCCC3[NH]2)[O]C1=O (centres unmarked) [OXA-CBDA, oxaliplatin-1,1-cyclobutane dicarboxylic acid cocrystal]
Content of OXA/% ([1]; Day 0): 100% | Content of OXA/% ([1]; Day 1): 100% | Content of OXA/% ([1]; Day 3): 100% | Content of OXA/% ([1]; Day 5): 99.56% | Content of OXA/% ([1]; Day 10): 99.97% | Content of OXA/% ([1]; Day 15): 99.30% | Content of OXA/% ([4]; Day 0): 100% | Content of OXA/% ([4]; Day 1): 100% | Content of OXA/% ([4]; Day 3): 99.98% | Content of OXA/% ([4]; Day 5): 99.12% | Content of OXA/% ([4]; Day 10): 99.45% | Content of OXA/% ([4]; Day 15): 99.57%

CCN(CC)CCCC(C)Nc1ccnc2cc(Cl)ccc12.[NH2][Pt]1([NH2])[O]C(=O)C2(CCC2)C(=O)[O]1 (centres unmarked) [CBT-U72, carboplatin-chloroquine cocrystal]
Content of CBT/% ([1]; Day 0): 100% | Content of CBT/% ([1]; Day 1): 100% | Content of CBT/% ([1]; Day 3): 99.20% | Content of CBT/% ([1]; Day 5): 99.24% | Content of CBT/% ([1]; Day 10): 99.57% | Content of CBT/% ([1]; Day 15): 99.92% | Content of CBT/% ([4]; Day 0): 100% | Content of CBT/% ([4]; Day 1): 100% | Content of CBT/% ([4]; Day 3): 99.66% | Content of CBT/% ([4]; Day 5): 99.84% | Content of CBT/% ([4]; Day 10): 99.67% | Content of CBT/% ([4]; Day 15): 99.97% | crystal structure [4]: unchanged

CCN(CC)CCCC(C)Nc1ccnc2cc(Cl)ccc12.O=C1[O][Pt]2([NH]C3CCCCC3[NH]2)[O]C1=O (centres unmarked) [OXA-U72, oxaliplatin-chloroquine cocrystal]
Content of OXA/% ([1]; Day 0): 100% | Content of OXA/% ([1]; Day 1): 100% | Content of OXA/% ([1]; Day 3): 99.21% | Content of OXA/% ([1]; Day 5): 99.64% | Content of OXA/% ([1]; Day 10): 99.33% | Content of OXA/% ([1]; Day 15): 99.64% | Content of OXA/% ([4]; Day 0): 100% | Content of OXA/% ([4]; Day 1): 100% | Content of OXA/% ([4]; Day 3): 99.38% | Content of OXA/% ([4]; Day 5): 99.46% | Content of OXA/% ([4]; Day 10): 99.33% | Content of OXA/% ([4]; Day 15): 99.46% | crystal structure [4]: unchanged

O=C1[O][Pt]2([NH]C3CCCCC3[NH]2)[O]C1=O.OCC1OC(Oc2cc(O)cc(C=Cc3ccc(O)cc3)c2)C(O)C(O)C1O (centres unmarked) [OXA-PDT, oxaliplatin-polydatin cocrystal]
crystal structure [1]: unchanged | Content of OXA/% ([1]; Day 0): 100% | Content of OXA/% ([1]; Day 1): 100% | Content of OXA/% ([1]; Day 3): 99.97% | Content of OXA/% ([1]; Day 5): 99.88% | Content of OXA/% ([1]; Day 10): 99.44% | Content of OXA/% ([1]; Day 15): 99.91% | Content of OXA/% ([4]; Day 0): 100% | Content of OXA/% ([4]; Day 1): 100% | Content of OXA/% ([4]; Day 3): 100% | Content of OXA/% ([4]; Day 5): 99.73% | Content of OXA/% ([4]; Day 10): 99.63% | Content of OXA/% ([4]; Day 15): 99.87% | crystal structure [4]: unchanged
